Values quoted from earlier work as cited in publication PMC12650809, “Evolving Therapeutic Landscape of ROS1-Positive Non-Small Cell Lung Cancer: An Updated Review” (Current Oncology, 2025).
Where two headings read alike, the source gives them in different places. Marks after values point to notes of the source that are not given here.

How the values were obtained:
ROS1-positive NSCLC [1] = conditions: for TKI-Naive ORR (%) / mPFS (Months): TKI-naïve patients; for IC-ORR (%): TKI-naïve patients evaluable for intracranial ORR
ROS1-positive NSCLC [2] = tested on: ROS1-positive NSCLC; set-up: method as in PMID 28520527
ROS1-positive NSCLC [3] = tested on: ROS1-positive NSCLC
ROS1^L2086F = tested on: ROS1^L2086F; set-up: method as in PMID 38070596; conditions: for resistance or activity with L2086F: ATP-binding pocket
[4] = tested on: advanced ROS1-positive NSCLC
ROS1^G2032R = tested on: ROS1^G2032R; set-up: method as in PMID 38070596; conditions: solvent-front substitution
ROS1-positive NSCLC [5] = tested on: ROS1-positive NSCLC; set-up: method as in PMID 30978502; conditions: 34 patients
ROS1-positive NSCLC [6] = tested on: ROS1-positive NSCLC; set-up: method as in PMID 31584608
ROS1-positive NSCLC [7] = tested on: ROS1-positive NSCLC; set-up: method as in PMID 29596029; conditions: 127 patients
[8] = tested on: ROS1^G2032R and D2033N mutations; conditions: preclinical, in vitro
[9] = tested on: advanced ROS1-rearranged NSCLC; set-up: method as in PMID 38197815
ROS1-positive NSCLC [10] = tested on: ROS1-positive NSCLC; set-up: method as in earlier work; conditions: WCLC 2025 Abstract 4540
[11] = eight patients with baseline BMs
[12] = ROS1 TKI-naïve patients, n = 71
[13] = previously treated with a ROS1-targeted TKI, n = 56

## Cc1cc(Nc2ncc(Cl)c(Nc3ccccc3S(=O)(=O)C(C)C)n2)c(OC(C)C)cc1C1CCNCC1 [Ceritinib, ceritinib]
ROS1-positive NSCLC [1]
  TKI-Naive ORR (%): 67%
  mPFS (Months): 19.3 Months
  IC-ORR (%): 25 ^b %
ROS1-positive NSCLC [2]
  dose reductions required: 68%
ROS1-positive NSCLC [2]; 32 patients
  ORR: 62%
  median DOR: 21 months
ROS1-positive NSCLC [2]; AEs, predominantly grade 1–2
  anorexia: 56%
  diarrhea: 85%
  nausea: 72%
  vomiting: 45%
ROS1-positive NSCLC [2]; crizotinib-naïve patients
  ORR: 67%
  median OS: 24 months
  median PFS: 19.3 months
ROS1-positive NSCLC [2]; [11]
  CNS disease control rate: 63%
  patients achieving an objective intracranial response: two

## C[C@@H](Oc1cc(-c2cnn(C3CCNCC3)c2)cnc1N)c1c(Cl)ccc(F)c1Cl [Crizotinib, crizotinib]
ROS1-positive NSCLC [3]
  Notable AEs: diarrhea: 44%
  Notable AEs: nausea: 40%
  Notable AEs: visual disturbances: 82%
ROS1-positive NSCLC [3]; WCLC 2025 Abstract 4540
  Discontinuation for AEs (%): <1%
  Notable AEs: peripheral edema: 40%
ROS1-positive NSCLC [3]; grade ≥ 3
  Main Grade ≥ 3 AEs: hypophosphatemia: Hypophosphatemia (10%), neutropenia (10%)
  Main Grade ≥ 3 AEs: neutropenia: Hypophosphatemia (10%), neutropenia (10%)
ROS1^L2086F; L2086F alone or in combination with G2032R or S1986F, preclinical models
  resistance or sensitivity conferred by ROS1^L2086F: cross-resistance
[4]
  4-year survival probability: 51%
  AEs leading to permanent treatment discontinuation: No AEs led to permanent treatment discontinuation
  grade 4 or 5 events: no grade 4 or 5 events
  median PFS: 19.3 months
  median duration of response (DOR): 24.7 months
  median overall survival (OS): 51.4 months
  median time to response: 7.9 weeks
[4]; 53 patients
  ORR: 72%
  complete responses (number): 6
  partial responses (number): 32
[4]; treatment-related AEs
  diarrhea: 44%
  nausea: 40%
  peripheral edema: 40%
  visual disturbances: 82%
ROS1^G2032R
  resistance or sensitivity with ROS1^G2032R: high-level resistance
ROS1-positive NSCLC [1]
  TKI-Naive ORR (%): 72%
ROS1-positive NSCLC [5]
  ORR: 70%
  median PFS: 20 months
ROS1-positive NSCLC [6]
  ORR: 69.4%
  median PFS: 5.5 months
ROS1-positive NSCLC [7]
  ORR: 72%
  median PFS: 15.9 months

## CCc1nc(C(N)=O)c(Nc2ccc(N3CCC(N4CCN(C)CC4)CC3)c(OC)c2)nc1NC1CCOCC1 [gilteritinib]
ROS1^L2086F
  resistance or activity with L2086F: preclinical efficacy

## C[C@H]1CNC(=O)c2cnn3ccc(nc23)N[C@H](C)c2cc(F)ccc2O1 [Repotrectinib, repotrectinib]
[8]
  inhibitory activity against ROS1^G2032R and D2033N mutations: potent inhibitory activity
ROS1-positive NSCLC [3]
  Notable AEs: dizziness: 58%
  Notable AEs: dysgeusia: 50%
  Notable AEs: paresthesia: 30%
ROS1-positive NSCLC [3]; WCLC 2025 Abstract 4540
  Discontinuation for AEs (%): 7%
ROS1-positive NSCLC [3]; grade ≥ 3
  Main Grade ≥ 3 AEs: anemia: 4%
  Main Grade ≥ 3 AEs: dizziness: 3%
ROS1^L2086F
  resistance or activity with L2086F: cross-resistance
[9]
  treatment discontinuation due to AEs: 7%
[9]; 17 patients harboring ROS1^G2032R
  response rate: 59%
[9]; AEs, mostly grade 1–2
  dizziness: 58%
  dysgeusia: 50%
  paresthesia: 30%
[9]; [12]
  ORR: 79%
  median DOR: 34.1 months
  median PFS: 35.7 months
[9]; TKI-naïve, measurable BMs at baseline
  intracranial response rate: 89%
[9]; [13]
  ORR: 38%
  median PFS: 9 months
ROS1^G2032R
  resistance or sensitivity with ROS1^G2032R: some sensitivity
ROS1-positive NSCLC [1]
  TKI-Naive ORR (%): 79%
  mPFS (Months): 35.7 Months
  IC-ORR (%): 89 ^d %
ROS1-positive NSCLC [10]; TKI-pretreated patients with G2032R
  ORR if G2032R Mutation (%): 59%
ROS1-positive NSCLC [10]; TKI-pretreated patients
  IC-ORR (%): 38%
  TKI-Pretreated ORR (%): 38%
  mPFS (Months): 9.0 Months
